In ChEMBL document CHEMBL4346707, “Synthesis and biological evaluation of pyrazolo[3,4-b]pyridine-3-yl pyrimidine derivatives as sGC stimulators for the treatment of pulmonary hypertension” (Eur J Med Chem, 2019):
The source made the active and inactive calls. The calls are words filed in the database; no cut-off is given here.

What was measured:
Rattus norvegicus = species on record: Rattus norvegicus; experiment: Stimulatory activity at sGC in Sprague-Dawley rat thoracic aorta assessed as inhibition of norepinephrine-induced contraction at 1 uM by JZ100 strain guages based isometric analysis relative to control; parameters: scale not given: the % may be the effect or the level left
[1] = Stimulatory activity at sGC in Sprague-Dawley rat thoracic aorta assessed as inhibition of norepinephrine-induced contraction by JZ100 strain guages based isometric analysis
Heart [2] = experiment: Cardioprotective activity in Langendorff perfused Sprague-Dawley rat heart assessed as reduction of coronary perfusion pressure; format: functional, tissue-based
Heart [3] = experiment: Cardioprotective activity in Langendorff perfused Sprague-Dawley rat heart assessed as reduction of coronary perfusion pressure at 0.01 to 3 uM relative to control; format: functional
Heart [4] = experiment: Cardioprotective activity in Langendorff perfused Sprague-Dawley rat heart assessed as increase in coronary artery relaxation; format: functional, tissue-based
Heart [5] = experiment: Cardioprotective activity in Langendorff perfused Sprague-Dawley rat heart assessed as increase in coronary artery blood flow; format: functional, tissue-based
Heart [6] = experiment: Potency index. ratio of EC50 of riociguat to EC50 of compound for cardioprotective activity in Langendorff perfused Sprague-Dawley rat heart assessed as increase in coronary artery relaxation; format: functional
[7] = Half life in male Beagle dog at 0.5 mg/kg, po by LC-MS/MS analysis; format: ADME, organism-based, Canis lupus familiaris; conditions: in vivo
[8] = Tmax in male Beagle dog at 0.5 mg/kg, po by LC-MS/MS analysis; format: ADME, organism-based, Canis lupus familiaris; conditions: in vivo
[9] = Cmax in male Beagle dog at 0.5 mg/kg, po by LC-MS/MS analysis; format: ADME, organism-based, Canis lupus familiaris; parameters: dose 0.5 mg/kg, route oral; conditions: in vivo
[10] = AUC (0 to infinity) in male Beagle dog at 0.5 mg/kg, po by LC-MS/MS analysis; format: ADME, organism-based, Canis lupus familiaris; parameters: dose 0.5 mg/kg, route oral, time infinity; conditions: in vivo
[11] = Apparent clearance in male Beagle dog at 0.5 mg/kg, po by LC-MS/MS analysis; format: ADME, organism-based, Canis lupus familiaris; conditions: in vivo, read-out: CL(app) (converted)
[12] = Apparent volume of distribution in male Beagle dog at 0.5 mg/kg, po by LC-MS/MS analysis; format: ADME, organism-based, Canis lupus familiaris; conditions: in vivo
[13] = Oral bioavailability (0 to infinity) in male Beagle dog at 0.5 mg/kg by LC-MS/MS analysis; format: ADME, organism-based, Canis lupus familiaris; conditions: in vivo
[14] = Half life in male Beagle dog at 1.5 mg/kg, po by LC-MS/MS analysis; format: ADME, organism-based, Canis lupus familiaris; conditions: in vivo
[15] = Tmax in male Beagle dog at 1.5 mg/kg, po by LC-MS/MS analysis; format: ADME, organism-based, Canis lupus familiaris; conditions: in vivo
[16] = Cmax in male Beagle dog at 1.5 mg/kg, po by LC-MS/MS analysis; format: ADME, organism-based, Canis lupus familiaris; parameters: dose 1.5 mg/kg, route oral; conditions: in vivo
[17] = AUC (0 to infinity) in male Beagle dog at 1.5 mg/kg, po by LC-MS/MS analysis; format: ADME, organism-based, Canis lupus familiaris; parameters: dose 1.5 mg/kg, route oral, time infinity; conditions: in vivo
[18] = Apparent clearance in male Beagle dog at 1.5 mg/kg, po by LC-MS/MS analysis; format: ADME, organism-based, Canis lupus familiaris; conditions: in vivo, read-out: CL(app) (converted)
[19] = Apparent volume of distribution in male Beagle dog at 1.5 mg/kg, po by LC-MS/MS analysis; format: ADME, organism-based, Canis lupus familiaris; conditions: in vivo
[20] = Half life in male Beagle dog at 4.5 mg/kg, po by LC-MS/MS analysis; format: ADME, organism-based, Canis lupus familiaris; conditions: in vivo
[21] = Tmax in male Beagle dog at 4.5 mg/kg, po by LC-MS/MS analysis; format: ADME, organism-based, Canis lupus familiaris; conditions: in vivo
[22] = Cmax in male Beagle dog at 4.5 mg/kg, po by LC-MS/MS analysis; format: ADME, organism-based, Canis lupus familiaris; parameters: dose 4.5 mg/kg, route oral; conditions: in vivo
[23] = AUC (0 to infinity) in male Beagle dog at 4.5 mg/kg, po by LC-MS/MS analysis; format: ADME, organism-based, Canis lupus familiaris; parameters: dose 4.5 mg/kg, route oral, time infinity; conditions: in vivo
[24] = Apparent clearance in male Beagle dog at 4.5 mg/kg, po by LC-MS/MS analysis; format: ADME, organism-based, Canis lupus familiaris; conditions: in vivo, read-out: CL(app) (converted)
[25] = Apparent volume of distribution in male Beagle dog at 4.5 mg/kg, po by LC-MS/MS analysis; format: ADME, organism-based, Canis lupus familiaris; conditions: in vivo
[26] = Half life in female Beagle dog at 0.5 mg/kg, po by LC-MS/MS analysis; format: ADME, organism-based, Canis lupus familiaris; conditions: in vivo
[27] = Tmax in female Beagle dog at 0.5 mg/kg, po by LC-MS/MS analysis; format: ADME, organism-based, Canis lupus familiaris; conditions: in vivo
[28] = Cmax in female Beagle dog at 0.5 mg/kg, po by LC-MS/MS analysis; format: ADME, organism-based, Canis lupus familiaris; parameters: dose 0.5 mg/kg, route oral; conditions: in vivo
[29] = AUC (0 to infinity) in female Beagle dog at 0.5 mg/kg, po by LC-MS/MS analysis; format: ADME, organism-based, Canis lupus familiaris; parameters: dose 0.5 mg/kg, route oral, time infinity; conditions: in vivo
[30] = Apparent clearance in female Beagle dog at 0.5 mg/kg, po by LC-MS/MS analysis; format: ADME, organism-based, Canis lupus familiaris; conditions: in vivo, read-out: CL(app) (converted)
[31] = Apparent volume of distribution in female Beagle dog at 0.5 mg/kg, po; format: ADME, organism-based, Canis lupus familiaris; conditions: in vivo

Structure (SMILES): CCOC(=O)N(C)c1c(N)nc(-c2nn(Cc3ccc(F)s3)c3ncccc23)nc1N
- Activity (Rattus norvegicus): 38.4%

Structure (SMILES): COC(=O)N(C)c1c(N)nc(-c2nn(Cc3ccc(F)s3)c3ncccc23)nc1N
- Activity (Rattus norvegicus): 39.2%

Structure (SMILES): CCOC(=O)N(C)c1c(N)nc(-c2nn(Cc3sccc3F)c3ncccc23)nc1N
- EC50 [1]: 380 nM
- Activity (Rattus norvegicus): 86.6%

Structure (SMILES): CCOC(=O)N(CC)c1c(N)nc(-c2nn(Cc3ccc(F)s3)c3ncccc23)nc1N
- Activity (Rattus norvegicus): 48.4%

Structure (SMILES): COC(=O)N(C)c1c(N)nc(-c2nn(Cc3cncc(C)c3)c3ncccc23)nc1N
- Activity (Rattus norvegicus): 31%

Structure (SMILES): Cc1cncc(Cn2nc(-c3nc(N)c(N(C)C(=O)OC(C)C)c(N)n3)c3cccnc32)c1
- Activity (Rattus norvegicus): 32.4%

Structure (SMILES): COC(=O)N(C)c1c(N)nc(-c2nn(Cc3ccccc3F)c3ncccc23)nc1N [RIOCIGUAT]
- EC50 [1]: 300 nM
- Activity (Rattus norvegicus): 88.9%
- EC50 (Heart [2]): 270 nM

Structure (SMILES): CCN(C(=O)OC)c1c(N)nc(-c2nn(Cc3sccc3F)c3ncccc23)nc1N
- EC50 [1]: 210 nM
- Activity (Rattus norvegicus): 85.4%
- Activity (Heart [2]): Dose-dependent effect
- EC50 (Heart [2]): 180 nM
- Emax (Heart [3]): 60%
- Activity (Heart [4]): Active
- Activity (Heart [5]): Active

Structure (SMILES): COC(=O)N(C)c1c(N)nc(-c2nn(Cc3cccnc3F)c3ncccc23)nc1N
- Activity (Rattus norvegicus): 21.1%

Structure (SMILES): COC(=O)Nc1c(N)nc(-c2nn(Cc3cccnc3F)c3ncccc23)nc1N
- Activity (Rattus norvegicus): 11.8%

Structure (SMILES): CCN(C(=O)OC(C)C)c1c(N)nc(-c2nn(Cc3cncc(C)c3)c3ncccc23)nc1N
- Activity (Rattus norvegicus): 0%

Structure (SMILES): CCN(C(=O)OC(C)C)c1c(N)nc(-c2nn(Cc3ccc(F)s3)c3ncccc23)nc1N
- Activity (Rattus norvegicus): 41%

Structure (SMILES): CC(C)OC(=O)N(C)c1c(N)nc(-c2nn(Cc3cccnc3F)c3ncccc23)nc1N
- Activity (Rattus norvegicus): 1.9%

Structure (SMILES): CCN(C(=O)OC)c1c(N)nc(-c2nn(Cc3cncc(C)c3)c3ncccc23)nc1N
- Activity (Rattus norvegicus): 2.8%

Structure (SMILES): COC(=O)Nc1c(N)nc(-c2nn(Cc3sccc3F)c3ncccc23)nc1N
- Activity (Rattus norvegicus): 14.3%

Structure (SMILES): COC(=O)N(C)c1c(N)nc(-c2nn(Cc3sccc3F)c3ncccc23)nc1N
- EC50 [1]: 110 nM
- Activity (Rattus norvegicus): 87%
- Activity (Heart [2]): Dose-dependent effect
- EC50 (Heart [2]): 86 nM
- Emax (Heart [3]): 60%
- Activity (Heart [4]): Active
- Ratio EC50 (Heart [6]): 3
- half-life [7]: 2.04 h
- Tmax [8]: 0.6 h
- Cmax [9]: 83.8 ng/mL
- AUC(0-inf) [10]: 213 ng·h/mL
- CL/F [11]: 41 mL/min/kg
- Vz [12]: 7.9 L/kg
- bioavailability [13]: 80%
- half-life [14]: 3.24 h
- Tmax [15]: 0.75 h
- Cmax [16]: 106 ng/mL
- AUC(0-inf) [17]: 373 ng·h/mL
- CL/F [18]: 96 mL/min/kg
- Vz [19]: 43.47 L/kg
- half-life [20]: 3.77 h
- Tmax [21]: 1.55 h
- Cmax [22]: 175 ng/mL
- AUC(0-inf) [23]: 874 ng·h/mL
- CL/F [24]: 103 mL/min/kg
- Vz [25]: 41.14 L/kg
- half-life [26]: 1.75 h
- Tmax [27]: 1.25 h
- Cmax [28]: 72.4 ng/mL
- AUC(0-inf) [29]: 198 ng·h/mL
- CL/F [30]: 42.3 mL/min/kg
- Vz [31]: 6.38 L/kg
- Activity (Heart [5]): Active

Structure (SMILES): CCN(C(=O)OC(C)C)c1c(N)nc(-c2nn(Cc3cccnc3F)c3ncccc23)nc1N
- Activity (Rattus norvegicus): 9%

Structure (SMILES): CCOC(=O)N(CC)c1c(N)nc(-c2nn(Cc3sccc3F)c3ncccc23)nc1N
- EC50 [1]: 240 nM
- Activity (Rattus norvegicus): 85.6%

Structure (SMILES): CCOC(=O)N(CC)c1c(N)nc(-c2nn(Cc3cncc(C)c3)c3ncccc23)nc1N
- Activity (Rattus norvegicus): 3%

Structure (SMILES): CCN(C(=O)OC(C)C)c1c(N)nc(-c2nn(Cc3sccc3F)c3ncccc23)nc1N
- EC50 [1]: 870 nM
- Activity (Rattus norvegicus): 76.2%

Structure (SMILES): CCOC(=O)Nc1c(N)nc(-c2nn(Cc3ccc(F)s3)c3ncccc23)nc1N
- Activity (Rattus norvegicus): 57.4%

Structure (SMILES): COC(=O)Nc1c(N)nc(-c2nn(Cc3ccc(F)s3)c3ncccc23)nc1N
- Activity (Rattus norvegicus): 30%

Structure (SMILES): CCN(C(=O)OC)c1c(N)nc(-c2nn(Cc3ccc(F)s3)c3ncccc23)nc1N
- Activity (Rattus norvegicus): 51.9%

Structure (SMILES): CC(C)OC(=O)Nc1c(N)nc(-c2nn(Cc3sccc3F)c3ncccc23)nc1N
- Activity (Rattus norvegicus): 42.3%

Structure (SMILES): CCOC(=O)Nc1c(N)nc(-c2nn(Cc3sccc3F)c3ncccc23)nc1N
- Activity (Rattus norvegicus): 27.3%

Structure (SMILES): CCOC(=O)N(C)c1c(N)nc(-c2nn(Cc3cncc(C)c3)c3ncccc23)nc1N
- Activity (Rattus norvegicus): 47.4%

Structure (SMILES): CC(C)OC(=O)N(C)c1c(N)nc(-c2nn(Cc3sccc3F)c3ncccc23)nc1N
- EC50 [1]: 180 nM
- Activity (Rattus norvegicus): 75.1%
- Activity (Heart [2]): Dose-dependent effect
- EC50 (Heart [2]): 110 nM
- Emax (Heart [3]): 60%
- Activity (Heart [4]): Active
- Activity (Heart [5]): Active

Structure (SMILES): CC(C)OC(=O)Nc1c(N)nc(-c2nn(Cc3cccnc3F)c3ncccc23)nc1N
- Activity (Rattus norvegicus): 12.5%

Structure (SMILES): CC(C)OC(=O)Nc1c(N)nc(-c2nn(Cc3ccc(F)s3)c3ncccc23)nc1N
- Activity (Rattus norvegicus): 17.1%

Structure (SMILES): CC(C)OC(=O)N(C)c1c(N)nc(-c2nn(Cc3ccc(F)s3)c3ncccc23)nc1N
- Activity (Rattus norvegicus): 38.1%

Structure (SMILES): COC(=O)N(C)c1c(N)nc(-c2nn(Cc3cccs3)c3ncccc23)nc1N
- Activity (Rattus norvegicus): 45.1%
